{"source": "patent US20160084855A1", "about": "“Compositions and Methods for Modulation and Detection of Immune and Inflammatory Responses” (UNIVERSITY OF CONNECTICUT, priority 2013, published 2016)", "key": {"TLR4": {"tested_on": "TLR4", "details": "Gomi et al., J Immunol. 2002; cited from earlier work"}, "TLR2": {"biological_target": "T1, TLR2 (Mus musculus, UniProt Q9QUN7)", "T1 construct": "endogenous in cells; host or cells: mouse bone cells", "T1 sequence (Q9QUN7 25-784)": "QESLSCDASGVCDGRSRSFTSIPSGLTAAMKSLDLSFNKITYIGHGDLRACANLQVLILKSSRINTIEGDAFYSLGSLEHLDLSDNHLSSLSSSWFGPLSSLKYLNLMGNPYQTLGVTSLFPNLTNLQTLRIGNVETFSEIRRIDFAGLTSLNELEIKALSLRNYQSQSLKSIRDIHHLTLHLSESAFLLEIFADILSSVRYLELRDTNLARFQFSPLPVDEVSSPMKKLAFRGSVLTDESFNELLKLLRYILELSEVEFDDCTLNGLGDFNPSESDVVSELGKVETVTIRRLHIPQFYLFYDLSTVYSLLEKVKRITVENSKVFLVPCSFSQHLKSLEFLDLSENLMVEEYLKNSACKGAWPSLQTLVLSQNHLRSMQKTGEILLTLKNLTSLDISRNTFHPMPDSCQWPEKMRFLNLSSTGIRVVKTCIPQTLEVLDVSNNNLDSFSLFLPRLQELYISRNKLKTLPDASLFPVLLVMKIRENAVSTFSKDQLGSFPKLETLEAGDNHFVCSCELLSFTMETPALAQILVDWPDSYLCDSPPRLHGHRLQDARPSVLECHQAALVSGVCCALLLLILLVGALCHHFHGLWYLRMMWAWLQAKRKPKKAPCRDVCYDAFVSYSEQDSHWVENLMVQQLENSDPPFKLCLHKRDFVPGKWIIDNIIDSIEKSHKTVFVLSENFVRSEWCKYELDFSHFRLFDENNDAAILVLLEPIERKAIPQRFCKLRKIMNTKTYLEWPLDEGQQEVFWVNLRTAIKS", "T1 sequence (Q9EPW9 28-795 partner)": "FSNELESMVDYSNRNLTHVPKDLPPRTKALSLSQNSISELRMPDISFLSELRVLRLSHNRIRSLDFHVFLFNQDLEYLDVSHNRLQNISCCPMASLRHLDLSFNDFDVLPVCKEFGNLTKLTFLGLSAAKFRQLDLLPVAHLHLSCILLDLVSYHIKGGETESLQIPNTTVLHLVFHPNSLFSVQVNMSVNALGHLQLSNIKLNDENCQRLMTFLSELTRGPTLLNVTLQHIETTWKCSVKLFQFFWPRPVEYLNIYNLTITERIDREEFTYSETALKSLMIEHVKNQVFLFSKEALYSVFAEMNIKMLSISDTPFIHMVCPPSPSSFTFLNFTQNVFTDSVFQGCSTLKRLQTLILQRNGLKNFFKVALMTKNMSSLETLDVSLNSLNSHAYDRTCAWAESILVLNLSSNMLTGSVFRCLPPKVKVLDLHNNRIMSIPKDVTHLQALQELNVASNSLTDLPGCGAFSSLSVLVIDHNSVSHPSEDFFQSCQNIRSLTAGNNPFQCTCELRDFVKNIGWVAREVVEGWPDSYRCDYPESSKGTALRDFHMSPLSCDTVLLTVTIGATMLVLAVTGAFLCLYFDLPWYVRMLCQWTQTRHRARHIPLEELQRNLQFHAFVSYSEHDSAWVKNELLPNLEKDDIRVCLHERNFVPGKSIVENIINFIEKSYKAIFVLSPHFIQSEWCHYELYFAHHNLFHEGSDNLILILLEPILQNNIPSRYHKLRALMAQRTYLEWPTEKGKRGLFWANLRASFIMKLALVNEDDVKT", "experiment": "TLR2 engagement in mouse bone cells", "format": "cell-based", "text": "Phospholipase A2 enzymes are recovered in all tissues and levels of this enzyme are increased in association with virtually all chronic inflammatory diseases. In fact, phospholipase A2 inhibitors are being used to treat atherosclerosis, multiple sclerosis, and a variety of other conditions. Phospholipase A2 hydrolyzes glycerol phospholipids so that the ester linked fatty acid in the #2 carbon position of glycerol is released, but only for a glycerol ester linkage in the L enantiomeric configuration. Phospholipase A2 will not hydrolyze fatty acid linked in the D enantiomeric form of glycerol."}, "human TLR4": {"biological_target": "T2, human TLR4 (Homo sapiens, UniProt O00206+Q9Y6Y9)", "T2 construct": "host or cells: HEK293", "T2 sequence (O00206 24-839)": "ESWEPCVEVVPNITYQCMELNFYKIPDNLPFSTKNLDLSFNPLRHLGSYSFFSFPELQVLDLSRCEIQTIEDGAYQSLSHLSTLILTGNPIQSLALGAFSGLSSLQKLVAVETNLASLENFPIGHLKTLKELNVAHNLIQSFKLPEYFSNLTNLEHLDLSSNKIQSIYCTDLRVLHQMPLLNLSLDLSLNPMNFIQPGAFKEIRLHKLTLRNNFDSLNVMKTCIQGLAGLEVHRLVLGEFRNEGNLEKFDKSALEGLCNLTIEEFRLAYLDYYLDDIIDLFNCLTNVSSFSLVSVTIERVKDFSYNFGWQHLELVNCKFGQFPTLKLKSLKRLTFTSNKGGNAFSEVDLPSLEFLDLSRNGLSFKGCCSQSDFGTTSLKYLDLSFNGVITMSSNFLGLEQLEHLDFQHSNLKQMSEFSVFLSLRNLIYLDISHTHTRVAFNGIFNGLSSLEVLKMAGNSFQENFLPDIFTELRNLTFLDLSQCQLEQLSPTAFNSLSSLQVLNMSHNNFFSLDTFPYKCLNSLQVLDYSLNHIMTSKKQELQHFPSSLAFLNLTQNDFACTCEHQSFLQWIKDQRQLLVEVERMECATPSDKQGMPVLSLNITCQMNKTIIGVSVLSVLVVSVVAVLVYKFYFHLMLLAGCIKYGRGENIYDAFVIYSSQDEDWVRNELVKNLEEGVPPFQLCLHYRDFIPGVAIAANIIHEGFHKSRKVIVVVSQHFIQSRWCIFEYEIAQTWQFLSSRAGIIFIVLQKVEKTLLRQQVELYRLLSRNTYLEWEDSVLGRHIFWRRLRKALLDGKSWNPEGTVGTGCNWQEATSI", "T2 sequence (Q9Y6Y9 17-160 limits assumed)": "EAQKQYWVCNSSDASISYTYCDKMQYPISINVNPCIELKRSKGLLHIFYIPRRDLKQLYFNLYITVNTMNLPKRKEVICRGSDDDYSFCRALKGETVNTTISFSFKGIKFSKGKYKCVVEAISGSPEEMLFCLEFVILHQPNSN", "experiment": "HEK293 cells transfected with human TLR4, CD14 (MD-2) and SEAP reporter", "format": "cell-based", "details": "24 hours; for Activation of TLR4-expressing HEK293 cells: Example 23, lipids 0.69 μg/ml, LPS 1 μg/ml", "experimental": "(§1) Cell lines and assays: Human embryonic kidney cells (HEK293 cells), either nontransfected or transfected with human TLR2 or human TLR4 and stably expressing MD-2 and CD14, were purchased from InvivoGen. Cells were cultured in Dulbecco's modified Eagle's medium (DMEM; Gibco) containing 4.5 g/liter 1-glucose and 10% fetal bovine serum (FBS). The activities of specific TLR agonists were measured through a colorimetric assay for the secretory embryonic alkaline phosphatase (SEAP), a reporter gene that is linked to NF-κB activation. Measurement of SEAP activity using the Quanti-blue substrate (InvivoGen) after TLR agonist treatment was carried out in test medium (DMEM, 10% FBS) without antibiotics. NF-κB activation was expressed as a response ratio for each stimulus relative to SEAP activity in unstimulated (vehicle control) cells. For in vitro testing, all lipid preparations tested were solubilized in a 50% mixture of dimethyl sulfoxide (DMSO)-water (approximately 1.11% DMSO in the final culture medium).\nTo test whether lipid 654 and lipid 430 can function as ligands for TLR4, HEK293 cells transfected with the human TLR4, CD14, and MD-2 genes but not expressing TLR2 were utilized."}, "CCL2": {"tested_on": "CCL2", "experiment": "Serum CCL2 by ELISA after injection of lipid into mice", "format": "in vivo, mouse", "details": "four hours", "experimental": "Lipid 654 was injected intraperitoneally (i.p.) into mice and three to four hours later serum was drawn and analyzed for levels of CCL2 via ELISA. Both female wild type (WT) C57BL/6 mice and female TLR2-deficient (TLR2−/−) mice were injected i.p. with either DMSO (vehicle control; VC) or Lipid 654. Three to four hours later, serum was drawn from these mice and analyzed for levels of CCL2.\nIn vivo assays: Wild-type (WT) C57BL/6 mice or TLR2^−/− mice were injected intraperitoneally (i.p.) or intravenously (i.v.) with vehicle control or specific lipids. Four hours later, blood samples were obtained from mice, and the mice were euthanized. Serum was separated from the blood samples and frozen at −80° C. until analysis. Serum samples were analyzed for levels of CCL2 by ELISA (R&D, Minneapolis, Minn.).\nLipid 654 was injected i.p. in 50% DMSO and lipid 430 was injected i.v. in phosphate-buffered saline (PBS). WT female C57BL/6 mice and TLR2^−/− female mice were injected with either vehicle, lipid 654, or lipid 430. Four hours later, serum was recovered from these mice and analyzed for levels of CCL2. […] The same was true for lipid 430."}, "human TLR2": {"biological_target": "T3, human TLR2 (Homo sapiens, UniProt O60603)", "T3 construct": "host or cells: HEK293", "T3 sequence (O60603 21-784)": "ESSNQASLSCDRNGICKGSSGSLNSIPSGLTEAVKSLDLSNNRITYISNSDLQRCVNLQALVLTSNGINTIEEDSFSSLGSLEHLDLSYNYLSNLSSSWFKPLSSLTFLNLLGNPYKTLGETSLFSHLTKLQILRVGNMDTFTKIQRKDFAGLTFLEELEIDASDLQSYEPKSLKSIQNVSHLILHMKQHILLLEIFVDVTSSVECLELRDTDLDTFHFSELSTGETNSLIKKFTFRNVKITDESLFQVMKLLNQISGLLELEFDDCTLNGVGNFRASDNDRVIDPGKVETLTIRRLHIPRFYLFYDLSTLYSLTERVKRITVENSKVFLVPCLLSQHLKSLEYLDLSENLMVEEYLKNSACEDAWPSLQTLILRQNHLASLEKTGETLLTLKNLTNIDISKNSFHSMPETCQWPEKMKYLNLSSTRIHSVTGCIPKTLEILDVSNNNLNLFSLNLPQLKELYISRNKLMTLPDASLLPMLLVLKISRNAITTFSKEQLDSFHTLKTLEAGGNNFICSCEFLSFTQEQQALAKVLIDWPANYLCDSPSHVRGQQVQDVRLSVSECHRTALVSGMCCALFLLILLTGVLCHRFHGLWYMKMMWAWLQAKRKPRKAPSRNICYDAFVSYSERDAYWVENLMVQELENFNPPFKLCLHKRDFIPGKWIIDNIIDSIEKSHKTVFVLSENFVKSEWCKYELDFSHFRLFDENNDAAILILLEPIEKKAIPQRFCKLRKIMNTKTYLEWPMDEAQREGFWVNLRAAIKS", "T3 sequence (Q9Y2C9 32-796 partner)": "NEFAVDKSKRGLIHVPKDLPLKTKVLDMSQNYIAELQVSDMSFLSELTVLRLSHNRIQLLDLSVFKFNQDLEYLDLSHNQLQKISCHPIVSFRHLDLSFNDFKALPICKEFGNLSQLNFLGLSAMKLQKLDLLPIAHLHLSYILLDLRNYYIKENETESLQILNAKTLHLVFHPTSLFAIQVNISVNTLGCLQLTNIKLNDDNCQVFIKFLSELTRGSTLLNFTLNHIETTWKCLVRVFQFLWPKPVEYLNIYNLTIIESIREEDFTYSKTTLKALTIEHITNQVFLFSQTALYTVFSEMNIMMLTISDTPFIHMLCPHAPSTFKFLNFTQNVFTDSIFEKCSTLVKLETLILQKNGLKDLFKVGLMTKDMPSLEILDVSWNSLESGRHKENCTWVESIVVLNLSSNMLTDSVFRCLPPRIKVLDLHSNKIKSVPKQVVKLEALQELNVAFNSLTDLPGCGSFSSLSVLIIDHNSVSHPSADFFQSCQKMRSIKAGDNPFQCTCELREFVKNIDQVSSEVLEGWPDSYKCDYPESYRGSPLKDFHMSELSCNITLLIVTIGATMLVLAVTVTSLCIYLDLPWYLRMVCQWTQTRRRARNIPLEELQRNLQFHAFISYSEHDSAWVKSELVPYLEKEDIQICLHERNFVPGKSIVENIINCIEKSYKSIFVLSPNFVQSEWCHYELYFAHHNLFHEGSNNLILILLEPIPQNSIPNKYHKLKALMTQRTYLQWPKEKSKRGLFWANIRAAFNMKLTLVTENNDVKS", "experiment": "HEK293 cells transfected with human TLR2, CD14 (MD-2) and SEAP reporter", "format": "cell-based", "details": "for HEK cell activation versus DMSO vehicle (stimulated/nonstimulated ratio): 24 h, MMP 0.2 μg/ml, LTA 2 μg/ml, lipid 654 and lipid 430 0.69 μg/ml, P<0.05; for Activation of human TLR2 in HEK cells: HPLC fractions of P. gingivalis total lipids; for Effect of pretreatment with anti-human TLR2 antibody on HEK-TLR2 cell activation: antibody 10 μg/mL 1 hour, MMP 0.1 μg/ml, LTA 1 μg/ml, lipid 430 and lipid 654 0.69 μg/ml", "text": "In vitro effects, human cells: HEK293 cells (human embryonic kidney cells) transfected with the human TLR2 and SEAP (secreted embryonic alkaline phosphatase) genes, were used to assay the function of Lipid 654 in vitro. The HEK cells, which naturally express variable levels of TLRs 1, 3, 5, 6, 7 and 9, were also transfected with the gene for CD14. CD14 is a co-receptor that enhances TLR2 responses. Additionally, TLR2 responses are most often mediated via another co-receptor which, in most cases, is either TLR1 or TLR6. The SEAP reporter gene is under the control of the IFN-β minimal promoter fused to five NF-κB and AP-1-binding sites. Stimulation with a TLR2 ligand activates NF-κB and AP-1 which induce the production of SEAP which is then quantitated as a colorimetric change in the presence of a detection medium.\nLipid 654, solubilized in 50% DMSO in water, and two documented TLR2 agonists, MMP and lipotechoic acid (LTA), were incubated for 24 hours with the HEK cells in the presence or absence of antibodies to TLR2 and TLR6.\nas §1\nTo determine the ability of P. gingivalis lipids to activate human cells via TLRs, the total lipids of P. gingivalis were fractionated by HPLC, and an aliquot of each fraction was dried and dissolved in 50% DMSO in water. Each HPLC fraction was then tested for cell activation by using HEK293 cells stably transfected with human TLR2, CD14, MD-2, and SEAP genes. In addition, the HEK293 cells naturally express variable levels of TLRs 1, 3, 5, 6, 7, and 9. The SEAP reporter gene is under the control of the beta interferon minimal promoter fused to five NF-κB and AP-1 binding sites. Stimulation with a TLR2 ligand activates NF-κB and AP-1, which induces the production of SEAP. SEAP is then quantitated via a colorimetric change in medium samples following the addition of a suitable enzyme substrate. Using this cell screen for human TLR2 engagement, each HPLC lipid fraction was screened for cell activation."}, "female SJL mice with EAE": {"tested_on": "female SJL mice with EAE", "experiment": "EAE by transfer of PLP-stimulated lymph node lymphocytes into SJL mice", "format": "in vivo, mouse", "details": "2 ng of Lipid 654 intravenously on day of cell transfer; 30 days; 5 mice; p=0.0006", "experimental": "Female SJL mice were injected intra-peritoneally with 30×10^6 4-day in-vitro-activated proteolipid protein (PLP)-stimulated lymph node lymphocytes and on the same day injected intravenously with either phosphate buffered saline (PBS) (vehicle control=“VC”) or 2 ng of Lipid 654. Mice were followed for 30 days for development of EAE and scored as 1=tail paralysis; 2=abnormal gait; 3=paralyzed hind legs; 4=paralyzed front and hind legs; 5=death. The results in FIG. 21 depict the daily mean for 5 mice injected with the VC and 5 mice injected with Lipid 654. […] Thus, MS patients can be treated directly with Lipid 654 or with commensal bacteria that produce increased amounts of Lipid 654."}}, "note": "Entries after “also recorded” stand apart in the source; their conditions may differ.", "data": [{"smiles": "CC(C)CCCCCCCCCCCC(=O)O[C@H](CCCCCCCCCCCC(C)C)CC(=O)NCC(=O)NC(CO)C(=O)O", "note": "(stereo partly shown) [Flavolipin]", "values": [{"measurement": "Innate immune activation via TLR4", "setting": "TLR4", "value": "acting as an agonist for TLR4"}]}, {"smiles": "CC(C)CCCCCCCCCCCC(O)CC(=O)NCC(=O)N[C@@H](CO)C(=O)O", "note": "(stereo partly shown) [Lipid 430]", "values": [{"measurement": "Potency in engaging TLR2 relative to the Lipid 654 preparation", "setting": "TLR2", "value": "at least ten fold more potent"}, {"measurement": "TLR2 agonism", "setting": "TLR2; Lipid 430 released with PLA2 treatment of Lipid 654", "value": "strong TLR2 agonist"}, {"measurement": "Activation of TLR4-expressing HEK293 cells", "setting": "human TLR4", "value": "showed no capacity to activate the TLR4-expressing cell line"}, {"measurement": "Serum levels of CCL2", "setting": "CCL2; TLR2−/− mice, lipid 430 2.5 μg i.v. in PBS", "value": "failed to do so"}, {"measurement": "Serum levels of CCL2", "setting": "CCL2; WT mice, lipid 430 2.5 μg i.v. in PBS", "value": "induced a significant increase in serum levels of CCL2"}, {"measurement": "HEK cell activation versus DMSO vehicle (stimulated/nonstimulated ratio)", "setting": "human TLR2", "value": "promoted significant HEK cell activation over the control cells; also recorded: significantly elevated over the DMSO vehicle"}, {"measurement": "Activation of human TLR2 in HEK cells", "setting": "human TLR2; 24 hours", "value": "activates HEK cells through TLR2; also recorded: show the capacity to activate human TLR2 in HEK cells"}, {"measurement": "Effect of pretreatment with anti-human TLR2 antibody on HEK-TLR2 cell activation", "setting": "human TLR2; 24 hours", "value": "significantly inhibited by pretreatment with anti-human TLR2 antibody"}]}, {"smiles": "CC(C)CCCCCCCCCCCC(=O)OC(CCCCCCCCCCCC(C)C)CC(=O)NCC(=O)N[C@@H](CO)C(=O)O", "note": "(stereo partly shown) [Lipid 654]", "values": [{"measurement": "Hydrolysis to Lipid 430 by other common lipase enzymes", "setting": "phospholipase A2 (PLA2); BLE, PLC, LL, PLD, CVF, 3 days", "value": "no other common lipase enzymes"}, {"measurement": "Hydrolysis by phospholipase A2 enzymes", "setting": "phospholipase A2 (PLA2); porcine pancreas PLA2 96 U/ml or honey bee venom PLA2 120 U/ml, 3 days", "value": "is hydrolyzed by phospholipase A2 (PLA2) enzymes"}, {"measurement": "Portion not hydrolyzed by PLA2", "setting": "phospholipase A2 (PLA2); repeated treatment with PLA2", "value": "Approximately half"}, {"measurement": "Activation of TLR4-expressing cell line", "setting": "human TLR4; Example 17, LPS derived from P. gingivalis, two preparations of Lipid 654", "value": "showed no ability to activate the TLR4-expressing cell line"}, {"measurement": "Activation of TLR4-expressing HEK293 cells", "setting": "human TLR4", "value": "showed no capacity to activate the TLR4-expressing cell line"}, {"measurement": "Serum levels of CCL2", "setting": "CCL2; TLR2−/− mice, lipid 654 1 μg i.p. in 50% DMSO", "value": "failed to do so"}, {"measurement": "Serum levels of CCL2", "setting": "CCL2; WT mice, lipid 654 1 μg i.p. in 50% DMSO", "value": "induced a significant increase in serum levels of CCL2"}, {"measurement": "HEK cell activation versus DMSO vehicle (stimulated/nonstimulated ratio)", "setting": "human TLR2", "value": "promoted significant HEK cell activation over the control cells; also recorded: significantly elevated over the DMSO vehicle"}, {"measurement": "Effect of anti-TLR2 and anti-TLR6 antibodies on NF-κB activation", "setting": "human TLR2; Example 17, 24 hours", "value": "inhibited by anti-TLR2 and anti-TLR6 antibodies"}, {"measurement": "NF-κB activation (SEAP)", "setting": "human TLR2; Example 17, 24 hours, no antibodies", "value": "demonstrated NF-κB-activation"}, {"measurement": "Activation of human TLR2 in HEK cells", "setting": "human TLR2; 24 hours", "value": "show the capacity to activate human TLR2 in HEK cells"}, {"measurement": "Effect of pretreatment with anti-human TLR2 antibody on HEK-TLR2 cell activation", "setting": "human TLR2; 24 hours", "value": "significantly inhibited by pretreatment with anti-human TLR2 antibody"}, {"measurement": "Course of EAE compared to vehicle control", "setting": "female SJL mice with EAE", "value": "significantly inhibited the course of EAE"}]}]}
